Key:
[1] = test system: oral epidermoid carcinoma (KB); test: Inhibition of tumor cell proliferation, KB; format: cell-based, human; conditions: 72 hours; for Inhibition (%): 50 ng/ml
Method: (§1) Human tumor cell lines: Hela leukemia HL-60, malignant melanocarcinoma B16, oral epidermoid carcinoma (KB), lung carcinoma (A549), breast carcinoma MCF-7, adenocarcinoma of stomach.
(§2) Animal tumor cell lines: Walker carcinoma, LLC-WRC-256, malignant melanoma (RMMI 1846), 3T3, and S-180 sarcoma (CCRF-180). All lines were routinely cultured in the RPMI1640 medium supplemented 20% fetal calf serum. The experiment was carried out in 96 microplate, each well had 5×10^5 cells and given desired concentration of 1 μg/ml (1×10^−6 g/ml) drug. Then the plate was incubated at 37° C. in an atmosphere of humidified air enriched with 5 percent carbon dioxide for 72 hours.
(§3) Inhibition percent rate of tumor cell proliferation was obtained according to the bellow formula. [formula]
as §2, with “hours. Concentration of CUR or PK-CUR-NP is 50ng/ml.” for “hours.”
as §2, with “hours. Concentration of ELE or PK-ELE-NP is 50 ng/ml.” for “hours.”
Animal tumor cell lines: Walker carcinoma, LLC-WRC-256, malignant melanoma (RMMI 1846), 3T3, and S-180 sarcoma (CCRF-180). All lines were routinely cultured in the RPMI1640 medium supplemented 20% fetal calf serum. […]

sarcoma-180 solid tumors = test: Effect on sarcoma-180 solid tumors in mice (survival); format: in vivo; conditions: Example 54; percentage survival, 30 days observation after tumor cell inoculation
[2] = Pharmacokinetic study: tissue AUC; format: in vivo, mice; conditions: 0.5 mg HHT/kg via the tail
Method: Present example described Pharmacokinetic studied of NP. Free HHT and PK-HHT-NP were given to mice via the tail at dose of 0.5 mg HHT/kg. Other methods are as same as method of Example 22.

[3] = test system: malignant melanocarcinoma B16; test: Inhibition of tumor cell proliferation, B16; format: cell-based, human; conditions: Mus musculus; 1 μg/ml, 72 hours
Method: as §1, §2, §3

Lewis = test: Growth of transplanted tumor, Lewis (tumor weight); format: in vivo, mice; conditions: 20 mg/kg i.p. from second day, tumor weight on 12th day
Method: Male mice, weight 20-22 g, were used in the experiment. 1×10^7 tumor cells were injected to mouse and PK-HHT-NP injected intraperitoneally began second day. All mice were sacrificed on the 12th days, isolated the tumor and weighed and calculated the inhibition rate of tumor weight.
Male mice, weight 20-22 g, were used in the experiment. 1×10^7 tumor cells were injected to mouse and CUR and PK-CUR-NP injected intraperitoneally began second day. All mice were sacrificed on the 12th days, isolated the tumor and weighed and calculated the inhibition rate of tumor weight.
Male mice, weight 20-22 g, were used in the experiment. 1×10^7 tumor cells were injected to mouse and ELE injected intraperitoneally began second day. All mice were sacrificed on the 12th days, isolated the tumor and weighed and calculated the inhibition rate of tumor weight.
Male mice, weight 20-22 g, were used in the experiment. 1×10^7 tumor cells were injected to mouse and CPT injected intraperitoneally began second day. All mice were sacrificed on the 12th days, isolated the tumor and weighed and calculated the inhibition rate of tumor weight.

Hela = test: Inhibition of tumor cell proliferation, Hela; format: cell-based, human; conditions: 72 hours
Method: as §1, §2, §3
as §2, with “hours. Concentration of CUR or PK-CUR-NP is 50ng/ml.” for “hours.”
as §2, with “hours. Concentration of ELE or PK-ELE-NP is 50 ng/ml.” for “hours.”
as §2, with “hours. Concentration of CPT or PK-CPT-NP is 50 ng/ml.” for “hours.”

tumor cells = test: Stained dead tumor cells in peritoneal fluid of tumor-bearing mice (ELE, CPT); format: in vivo; conditions: 12th day of tumor inoculation
From the text: (§4) The acceptable criterion for determining the anti-tumor efficacy of the formulation over the free ELE and PK-ELE-NP are the determination of the life span prolongation.
(§5) The number of dead cells in the peritoneal fluid of mice treated with PK-ELE-NP formulation increased life span when compared to free ELE.
(§6) The acceptable criterion for determining the anti-tumor efficacy of the formulation over the free drug and PK-CPT-NP are the determination of the life span prolongation. The number of dead cells in the peritoneal fluid of mice treated with PK-CPT-NP formulation increased life span when compared to free CPT.

tumor-bearing mice = test: Survival time of tumor-bearing mice (ELE, CPT); conditions: mouse, in vivo
From the text: as §4, §5, §6

tumor S-180 = test: Survival time of tumor-bearing mice (CUR); conditions: mouse, in vivo
From the text: The acceptable criterion for determining the anti-tumor efficacy of the free CUR and PK-CUR-NP are the determination of the life span prolongation.
The number of dead cells in the peritoneal fluid of mice treated with PK-CUR-NP increased life span when compared to free CUR.

| Compound | inhibition at 1 µg/mL ([1]; Homo sapiens, 1 μg/ml) [%] | Mean survival (%) (sarcoma-180 solid tumors) | Tissue AUC, Blood [2] [µg·h/g] | Tissue AUC, Cancer [2] [µg·h/g] | Tissue AUC, Heart [2] [µg·h/g] | Tissue AUC, Kidney [2] [µg·h/g] | Tissue AUC, Liver [2] [µg·h/g] | Tissue AUC, Lung [2] [µg·h/g] | Tissue AUC, Spleen [2] [µg·h/g] | inhibition at 1 µg/mL [3] [%] | Inhibition (%) of transplanted tumor (Lewis) [%] | inhibition at 1 µg/mL (Hela; Homo sapiens, HeLa, 1 μg/ml) [%] | Number of stained dead tumor cells (1 × 10^6 cells mL^−1) (tumor cells) | inhibition at 0.05 µg/mL (Hela; Homo sapiens, HeLa, 50 ng/ml) [%] | Increase in life span T/C (%) (tumor-bearing mice) | MST (tumor-bearing mice) [days] | Inhibition (%) [1] [%] | Inhibition (%) (Hela; 50 ng/ml) | Increase in life span T/C (%) (tumor S-180) | MST (tumor S-180) [days] |
| --- | --- | --- | --- | --- | --- | --- | --- | --- | --- | --- | --- | --- | --- | --- | --- | --- | --- | --- | --- | --- |
| COC(=O)C[C@](O)(CCCC(C)(C)O)C(=O)O[C@@H]1C(OC)=C[C@]23CCCN2CCc2cc4c(cc2[C@H]13)OCO4 [HHT, Homoharringtonine] | 80 ± 8.5 | 58.6 | 3.0 | 12.0 | 89.2 | 243.2 | 168.8 | 138.9 | 192.8 | 73.8 ± 8.1 | 70 ± 6 | 75.6 ± 8 | – | – | – | – | – | – | – | – |
| CC[C@@]1(O)C(=O)OCc2c1cc1n(c2=O)Cc2cc3ccccc3nc2-1 [CPT, Camptothecin] | – | – | – | – | – | – | – | – | – | – | 60.8 ± 10.4 | – | 5.36 ± 0.95 1 × 10^6 cells mL^−1 | 60.8 ± 12.2 | 144.3 | 33 ± 4.5 | – | – | – | – |
| Eelemene | – | – | – | – | – | – | – | – | – | – | 65.8 ± 10.5 | – | 5.80 ± 0.80 1 × 10^6 cells mL^−1 | – | 144.3 | 33.2 | 60.2 ± 13.2 | 69.8 ± 11.2 | – | – |
| C=C1C[C@@]2(O)O[C@@]3(C[C@H]2C(C)C)[C@@H](C)CC[C@@H]13 [CUR, Curcumol] | – | – | – | – | – | – | – | – | – | – | 68.9 ± 7.8 | – | – | – | – | – | 60.8 ± 9.1 | 67.2 ± 10.4 | 134.78 | 31 ± 1.9 |

From patent publication US20040192641A1, “Special preparation of anticancer drugs made by novel nanotechnology” (priority 2003, published 2004)
